Results on four molecules are retold here after ChEMBL document CHEMBL1136148, “Tetrabiphenylporphyrin-based receptors for protein surfaces show sub-nanomolar affinity and enhance unfolding” (Bioorg Med Chem Lett, 2003).

The test can be described thus: Binding ability of the receptor to the surface of Cytochrome c and activity expressed as Dissociation constant(Kd). On the set-up: species or system Equus caballus.
Regarding `O=C(O)c1cc(C(=O)O)cc(-c2ccc(-c3c4nc(c(-c5ccc(-c6cc(C(=O)O)cc(C(=O)O)c6)cc5)c5ccc([nH]5)c(-c5ccc(-c6cc(C(=O)O)cc(C(=O)O)c6)cc5)c5ccc([nH]5)c(-c5ccc(-c6cc(C(=O)O)cc(C(=O)O)c6)cc5)c5nc3C=C5)C=C4)cc2)c1`, the affinity, expressed as Kd, was 1500 nM.
With `O=C(O)c1ccc(-c2ccc(-c3c4nc(c(-c5ccc(-c6ccc(C(=O)O)cc6)cc5)c5ccc([nH]5)c(-c5ccc(-c6ccc(C(=O)O)cc6)cc5)c5ccc([nH]5)c(-c5ccc(-c6ccc(C(=O)O)cc6)cc5)c5nc3C=C5)C=C4)cc2)cc1`, the Kd – broadly, the concentration at which binding is half-saturated – amounted to 17000 nM.
Consider `O=C(O)C[C@H](NC(=O)c1cc(C(=O)N[C@@H](CC(=O)O)C(=O)O)cc(-c2ccc(-c3c4nc(c(-c5ccc(-c6cc(C(=O)N[C@@H](CC(=O)O)C(=O)O)cc(C(=O)N[C@@H](CC(=O)O)C(=O)O)c6)cc5)c5ccc([nH]5)c(-c5ccc(-c6cc(C(=O)N[C@@H](CC(=O)O)C(=O)O)cc(C(=O)N[C@H](CC(=O)O)C(=O)O)c6)cc5)c5nc(c(-c6ccc(-c7cc(C(=O)N[C@@H](CC(=O)O)C(=O)O)cc(C(=O)N[C@@H](CC(=O)O)C(=O)O)c7)cc6)c6ccc3[nH]6)C=C5)C=C4)cc2)c1)C(=O)O`, for which the Kd turned out to be 0.67 nM. This Kd lies about 25000-fold lower than the previous one.
With `COC(=O)[C@H](CC(=O)O)NC(=O)c1cc(C(=O)N[C@@H](CC(=O)O)C(=O)OC)cc(-c2ccc(-c3c4nc(c(-c5ccc(-c6cc(C(=O)N[C@@H](CC(=O)O)C(=O)OC)cc(C(=O)N[C@@H](CC(=O)O)C(=O)OC)c6)cc5)c5ccc([nH]5)c(-c5ccc(-c6cc(C(=O)N[C@@H](CC(=O)O)C(=O)OC)cc(C(=O)N[C@H](CC(=O)O)C(=O)OC)c6)cc5)c5nc(c(-c6ccc(-c7cc(C(=O)N[C@@H](CC(=O)O)C(=O)OC)cc(C(=O)N[C@@H](CC(=O)O)C(=O)OC)c7)cc6)c6ccc3[nH]6)C=C5)C=C4)cc2)c1`, the affinity, expressed as Kd, was 1700 nM.
